#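 Results reflect a 48-hour exposure of cells in 96-well plates to compound at five concentrations. Here, GI50 denotes the concentration required for 50% inhibition of growth. TGI denotes the concentration required for complete inhibition of growth.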
# Experiments:
# Experiment in all cases: DTP human tumour cell line panel, 48 h
# [1] = system: 786-0 renal
# [2] = system: A549 NSCLC
# [3] = system: COLO 205 colon
# [4] = system: HCT-116 colon
# [5] = system: HCT-15 colon
# [6] = system: HOP-62 NSCLC
# [7] = system: HOP-92 NSCLC
# [8] = system: K-562 leukemia
# [9] = system: MDA-MB-435
# [10] = system: MDA-N
# [11] = system: NCI-H522 lung
# [12] = system: OVCAR-5 ovarian
# [13] = system: PC-3 prostate
# [14] = system: SK-MEL-5 melanoma
# [15] = system: UACC-62 melanoma
# [16] = system: ACHN renal
# [17] = system: NCI-H226 lung
# [18] = system: HS 578T breast
SMILES,TGI [1] [µM],TGI [2] [µM],TGI [3] [µM],TGI [4] [µM],TGI [5] [µM],TGI [6] [µM],TGI [7] [µM],TGI [8] [µM],TGI [9] [µM],TGI [10] [µM],TGI [11] [µM],TGI [12] [µM],TGI [13] [µM],TGI [14] [µM],TGI [15] [µM],TGI [16] [µM],TGI [17] [µM],GI50 [4] [µM],TGI [18] [µM]
C1CSCCSCCCSC2CCCCC2SC1 (configuration not stated),> 100,> 100,> 100,> 100,> 100,> 100,> 100,> 100,> 100,> 100,> 100,> 100,> 100,> 100,> 100,,,,
CCOC(=O)C1SC(=Nc2ccc(OC)c(OC)c2)N=C1C (configuration not stated),90.2,> 100,> 100,> 100,> 100,> 100,> 100,> 100,,,32.3,> 100,,37.2,67.9,> 100,> 100,,
C=CCNC(=S)N1CC(C)C(=O)Nc2cc(Cl)ccc21 (configuration not stated),> 100,> 100,> 100,> 100,> 100,> 100,> 100,> 100,,,> 100,> 100,,> 100,> 100,> 100,> 100,,
Clc1cccc(-c2sc(-c3ccsc3)cc2Cc2ccsc2)c1,> 10,> 10,> 10,,> 10,> 10,> 10,> 10,> 10,> 10,,,> 10,> 10,> 10,,,,
COc1cc(C2C3=C(COC3=O)Oc3cc4c(cc32)OCO4)ccc1O (configuration not stated),> 100,> 100,0.576,> 48.3,> 100,> 100,> 78.1,> 100,,0.346,1.31,> 100,> 83.2,0.736,> 100,> 94.7,> 100,,
Nc1ccc2[nH]c(-c3cccc(C(F)(F)F)c3)cc(=O)c2c1,> 100,> 100,> 100,> 100,> 100,> 100,> 100,,88.6,,> 100,> 100,97.7,> 100,> 100,> 100,,52,65.6
O=C(Nc1ccc(Cl)cc1C(F)(F)F)C(=O)C1CCCS1(=O)=O (configuration not stated),> 100,> 100,> 100,> 100,> 100,> 100,> 10,> 100,,,,> 100,,> 100,> 100,> 100,> 100,,
C[C@]12CCC(=O)C(OC(=O)c3ccc([N+](=O)[O-])cc3)=C1CCC2=O,> 100,> 100,> 100,> 100,> 100,> 100,> 100,,,,> 100,> 100,,> 100,> 100,> 100,> 100,,
NC(N)=NS(=O)(=O)c1ccc(N/N=C2/CCOC2=O)cc1,> 100,> 100,> 100,> 100,> 100,77.8,> 100,> 100,> 100,> 100,,> 100,> 100,> 100,> 100,> 100,> 100,,> 100
CC12C3C4C1C1C2C3C41CO (configuration not stated),> 100,> 100,> 100,> 100,> 100,,> 100,> 100,> 100,> 100,,> 100,,> 100,> 100,> 100,> 100,,
COC(=O)N1CC(=O)C(C(=O)NC23CC4CC(CC(C4)C2)C3)C1 (configuration not stated),> 100,> 100,> 100,> 100,> 100,,> 100,> 100,> 100,> 100,> 100,> 100,> 100,> 100,> 100,> 100,> 100,,
O=C(O)/C(Cl)=C(\Cl)C(=O)c1ccccc1,> 100,> 100,> 100,> 100,> 100,> 100,> 100,> 100,,,> 100,> 100,,> 100,> 100,> 100,> 100,,
CC(C)C(=O)N1Cc2cc(Cl)cc(Cl)c2OC(=O)c2ccccc21,> 100,> 100,> 100,> 100,85.9,> 100,62.7,> 100,,,40.9,90,,38.3,42.2,72.9,58.7,,
N#CC(/C(CCC(=O)Nc1ccc(Cl)cc1)=N/NC(=O)c1cc2ccccc2cc1O)c1ccccc1 (configuration not stated),> 100,> 100,> 100,> 100,,85.3,> 100,,,,,60.6,,40.6,> 100,> 100,> 100,,
O=C(/C=C\c1cccc2ccccc12)c1ccc(F)cc1,32.1,81.2,35.3,26.8,31.8,> 100,39.8,33.2,,,40.2,33.2,,33,27.5,30.8,> 100,,
COc1ccc(/C(=N\NC(=O)NN)C(c2ccc(OC)cc2)C2(O)C(=O)Nc3c(Cl)cc(Cl)cc32)cc1 (configuration not stated),> 100,> 100,> 100,> 100,,> 100,> 100,,,,,> 100,,> 100,> 100,> 100,> 100,,

SMILES,TGI [1] [µM],TGI [2] [µM],TGI [3] [µM],TGI [4] [µM],TGI [5] [µM],TGI [6] [µM],TGI [7] [µM],TGI [8] [µM],TGI [9] [µM],TGI [10] [µM],TGI [11] [µM],TGI [12] [µM],TGI [13] [µM],TGI [14] [µM],TGI [15] [µM],TGI [16] [µM],TGI [17] [µM],GI50 [4] [µM],TGI [18] [µM]
CC(CCC[C@H](C)CO)[C@H]1[C@@H](O)C(O)C2[C@@H]3C[C@@H](O)C4(O)C[C@@H](O)CC[C@]4(C)C3CC[C@@]21C (some centres not stated),> 100,> 100,> 100,> 100,> 100,> 100,> 100,> 100,,,> 100,,,> 100,> 100,> 100,> 100,,
NS(=O)(=O)c1nnc(NC(=O)C23CC4CC(CC(C4)C2)C3)s1,> 100,> 100,> 100,> 100,> 100,> 100,> 100,> 100,> 100,> 100,> 100,> 100,,> 100,> 100,> 100,> 100,,> 100
CCOP(=O)(OCC)/C(C#N)=C/c1cccn1C(C)C,> 100,> 100,> 100,> 100,> 100,> 100,> 100,> 100,> 100,> 100,> 100,> 100,> 100,> 100,> 100,> 100,> 100,,
CCOC(=O)Cn1c2ccccc2c(=O)c2cc(C)c(C)c(C#N)c21,> 100,> 100,> 100,> 100,> 100,> 100,> 100,,,,,> 100,,,> 100,> 100,> 100,,
COc1cc(OC)c(C(=O)c2cccs2)cc1N,> 100,> 100,> 100,,> 100,> 100,,> 100,,,,> 100,,> 100,> 100,> 100,,,
CC(=O)OC(CC1(C)C(C)CCC23COC(=O)C2=CCCC31)c1ccoc1 (configuration not stated),32.2,> 100,> 100,61.6,56.2,85.3,52.5,> 100,,,35.6,67.4,,42.1,59.9,> 100,44.1,,
CCOC(=O)CC1COc2ccc3c(c21)OCO3 (configuration not stated),> 100,> 100,> 100,> 100,> 100,> 100,> 100,> 100,,,,> 100,,> 100,> 100,> 100,> 100,,
COc1cc(C)c(/C=C2/N=C(c3ccccc3)OC2=O)c([N+](=O)[O-])c1OC,> 100,> 100,> 100,> 100,> 100,> 100,> 100,> 100,> 100,> 100,> 100,> 100,> 100,,> 100,> 100,> 100,,
COC(=O)c1cc(C(=O)OC)c(CC(=O)C(=O)NC2C3CC4CC(C3)CC2C4)nc1CC(=O)C(=O)NC1C2CC3CC(C2)CC1C3 (configuration not stated),> 100,> 100,> 100,> 100,> 100,> 100,> 100,> 100,,,> 100,> 100,,> 100,> 100,> 100,> 100,,
O=C1CSC(c2c[nH]c3ccccc23)N1c1ccc(Cl)cc1 (configuration not stated),> 100,> 100,> 100,> 100,> 100,> 100,> 100,> 100,> 100,> 100,,> 100,,> 100,> 100,> 100,> 100,,> 100
N/N=C1\C(=O)N(Cc2ccccc2)C(=O)C1C(=O)NCc1ccccc1 (configuration not stated),> 100,> 100,> 100,> 100,> 100,> 100,> 100,> 100,,,> 100,> 100,,> 100,> 100,> 100,,,
N#CCc1c(-c2ccccc2)n(S(=O)(=O)c2ccccc2)c2ccccc12,> 100,> 100,> 100,> 100,> 100,> 100,> 100,> 100,,,,> 100,,> 100,> 100,> 100,> 100,,
COc1ccc(/C(C)=N/NC(=O)c2ccncc2)c(OC)c1,> 10,> 10,> 10,,> 10,> 10,> 10,> 10,,> 10,,,,> 10,> 10,,> 10,,> 10
CC1CN=C(NS(=O)(=O)c2cc(C(=O)Nc3ccc(Cl)cc3)c(Cl)cc2S)NN1 (configuration not stated),> 100,> 100,> 100,> 100,> 100,> 100,,> 100,73.1,> 100,64.1,> 100,94,28.8,84.1,> 100,68.8,,
Cc1ccc(-c2nc3ccccc3c(=O)n2NCC2(O)OCC(O)C(O)C2O)cc1 (configuration not stated),> 100,> 100,> 100,> 100,> 100,,,> 100,,,> 100,> 100,,> 100,> 100,> 100,,,
N#Cc1ccc(Cc2ccccn2)cc1Cl,> 100,> 100,> 100,,,> 100,> 100,> 100,,,> 100,> 100,,> 100,> 100,> 100,> 100,,
